Consider 77 compounds from patent US20240334931A1, “NEMATICIDAL COMPOSITION” (ISHIHARA SANGYO KAISHA, LTD., priority 2021, published 2024).

The structures appear in SMILES notation.

One experiment relates to southern root-knot nematode (Meloidogyne incognita). Description: Test on effects against southern root-knot nematode: treated contaminated soil, cucumber pot test (Test Example 1 and Comparative Test). It counts as in vivo. Details: key: 0: No knot formed on the root at all; 1: Knots formed to a slight degree; 2: Knots formed to a moderate degree; 3: Knots formed to a heavy degree; 4: Knots formed to the heaviest degree. Conditions: 200 ppm, 10 ml poured to 200 ml contaminated soil; cucumber; two to three weeks after sowing. The procedure:
The treated soil was put into a pot, three cucumber seeds were sown, and the pot was placed in a greenhouse. Two to three weeks after the sowing of the cucumber seeds, the root knot index was determined based on the degree of formation of root knots shown in Table 5. Each composition containing Compound No. […]-192 or B-196 at a concentration of 400 ppm and the composition containing Compound No. […] [table] […] Root knot index of 2 corresponds to a state where the proportion of healthy roots is 50% or less to the entire roots, and indicates control effects to such an extent that cucumber as a crop plant to be tested cannot healthily grow.
In turn, `CC(C)(C(=NNC=O)c1ccccc1F)n1cnc(C(F)(F)F)n1` [A-153] displayed a root knot index of 1.

The same experiment, now with this note: 400 ppm, 10 ml poured to 200 ml contaminated soil; cucumber; two to three weeks after sowing.
`CC(C)(C(=NNC=O)c1ccccc1C(F)(F)F)n1cnc(C(F)(F)F)n1` [A-261] came in with a root knot index of 1.
`COc1cccc(C(=NNC=O)C(C)(C)n2ccc(Cl)n2)c1` [A-330]: the root knot index is 1.
`CC(C)(C(=NNC=O)c1ccccc1Cl)n1nc(Br)nc1Br` [A-224] yielded a root knot index of 1.
`O=CNN=C(c1ccc(Cl)cc1)C1(n2ccc(C(F)(F)F)n2)CC1` (single isomer, unassigned) [B-87] showed a root knot index of 1.
With `CC(C)(C(=NNC=O)c1ccccc1Cl)n1ccc(C(F)(F)F)n1` [A-150], the root knot index stood at 1.
Consider `CC(C)(C(=NNC=O)c1ccccc1Cl)n1cnc(C(F)(F)F)n1` [A-151], for which the root knot index is on record as 1.
Still for that read-out and setting: under `Cc1ccccc1C(=NNC=O)C(C)(C)n1ccc(Br)n1` [A-249] stands 1; under `CC(C)(C(=NNC=O)c1ccccc1Cl)n1cnc([N+](=O)[O-])n1` [A-206], 1.
In turn, `CC(C)(C(=NNC=O)c1ccccc1Cl)n1ccc(I)n1` [A-203] gave a root knot index of 1.
For the compound `CC(C)(C(=NNC=O)c1cccc2c1OC(F)(F)O2)n1ccc(Br)n1` [A-414], the root knot index was 1.
`CC(C)(C(=NNC=O)c1cccc2c1OC(F)(F)O2)n1cnc(Cl)n1` [A-413] gave a root knot index of 1.
With `CC(C)(C(=NNC=O)c1ccccc1Cl)n1cnc(Br)n1` [A-202], the root knot index amounted to 1.
On to `CC(C)(C(=NNC=O)c1cc(Cl)ccc1Cl)n1cnc(C(F)(F)F)n1` [A-335], for which the root knot index stood at 1.
On the same count and under the same terms, the figure for `CC(C)(C(=NNC=O)c1cccc2c1OC(F)(F)O2)n1ccc(C(F)(F)F)n1` [A-410] is 1; for `CC(C)(C(=NNC=O)c1ccccc1Cl)n1cnc(C(F)F)n1` [A-198] it is 1; for `CC(C)(C(=NNC=O)c1cccc(F)c1F)n1ccc(C(F)(F)F)n1` [A-336] it is 1.
The compound `CC(C)(C(=NNC=O)c1cccc(F)c1F)n1cnc(C(F)(F)F)n1` [A-337] showed a root knot index of 1.
The same measure, in the same setting: under `CCN(C=O)N=C(c1ccc(Cl)cc1)C(C)(C)n1cnc(C(F)(F)F)n1` [A-95] stands 1; under `CCCN(C=O)N=C(c1ccc(Cl)cc1)C(C)(C)n1cnc(C(F)(F)F)n1` [A-96], 1.
In turn, `CC(C)(C(=NNC=O)c1ccccc1F)n1ccc(C(F)(F)F)n1` [A-152] gave a root knot index of 1.
Still for that read-out and setting: the figure for `Cc1ccccc1C(=NNC=O)C(C)(C)n1cnc(Cl)n1` [A-248] is 1.
For the compound `CSc1ccn(C(C)(C)C(=NNC=O)c2cccc(F)c2)n1` [A-430], the root knot index is listed as 1.
As for `O=CNN=C(c1ccc(F)cc1)C1(n2ccc(C(F)(F)F)n2)CC1` (single isomer, unassigned) [B-105], the root knot index is on record as 1.
The compound `Cc1ccccc1C(=NNC=O)C(C)(C)n1cnc([N+](=O)[O-])n1` [A-252] showed a root knot index of 1.
`Cc1cccc(C(=NNC=O)C(C)(C)n2ccc(Cl)n2)c1` [A-324] showed a root knot index of 1.
As to `CC(C)(C(=NNC=O)c1ccccc1Cl)n1ccc(Br)n1` [A-201], the root knot index amounted to 1.
For the compound `CC(C)(C(=NNC=O)c1ccccc1Br)n1ccc(C(F)(F)F)n1` [A-233], the root knot index is recorded as 1.
Same read-out and setting: the figure for `CC(C)(C(=NNC=O)c1cccc(F)c1Cl)n1cnc(C(F)(F)F)n1` [A-350] is 1; for `COc1ccccc1C(=NNC=O)C(C)(C)n1ccc(C(F)(F)F)n1` [A-264] it is 1; for `CC(C)(C(=NNC=O)c1cccc(F)c1Cl)n1ccc(C(F)(F)F)n1` [A-349] it is 1.
The compound `CC(C)(C(=NNC=O)c1cccc(F)c1)n1cnc(Cl)n1` [A-278] had a root knot index of 1.
The same measure, in the same setting: the figure for `COCN(C=O)N=C(c1ccccc1Br)C(C)(C)n1ccc(C(F)(F)F)n1` [A-235] is 1.
On the same count and under the same terms, the figure for `CC(C)(C(=NNC=O)c1cccc(F)c1)n1ccc(Cl)n1` [A-277] is 1.
In turn, `O=CNN=C(c1ccccc1Cl)C1(n2ccc(C(F)(F)F)n2)CC1` [B-148] displayed a root knot index of 1.
On to `CC(C)(C(=NNC=O)c1c(F)cccc1F)n1cnc(C(F)(F)F)n1` [A-161], for which the root knot index was 1.
With `CC(C)(C(=NNC=O)c1cccc(F)c1)n1cnc(C(F)(F)F)n1` [A-275], the root knot index worked out at 1.
`Cc1ccccc1C(=NNC=O)C(C)(C)n1cnc(C(F)(F)F)n1` [A-245] showed a root knot index of 1.
The compound `CC(C)(C(=NNC=O)c1ccccc1Cl)n1ccc(Cl)n1` [A-199] displayed a root knot index of 1.
The compound `CC(C)(C(=NNC=O)c1ccccc1Cl)n1cc(F)cn1` [A-217] yielded a root knot index of 1.
The same measure, in the same setting: the figure for `CC(C)(C(=NNC=O)c1cccc2c1OC(F)(F)O2)n1ccc(Cl)n1` [A-412] is 1.
In the case of `Cc1ccccc1C(=NNC=O)C(C)(C)n1ccc(C(F)(F)F)n1` [A-244], the root knot index was determined as 1.
For the compound `COc1cccc(C(=NNC=O)C(C)(C)n2cnc(C(F)(F)F)n2)c1` [A-329], the root knot index is 1.
For `CC(C)(C(=NNC=O)c1ccccc1Cl)n1cnc(Cl)n1` [A-200], the root knot index was determined as 1.
On the same count and under the same terms, under `CCN(C=O)N=C(c1ccccc1Cl)C(C)(C)n1ccc(C(F)(F)F)n1` [A-193] stands 1; under `CC(C)(C(=NNC=O)c1ccc(Cl)cc1)n1cnc(C(F)(F)F)n1` [A-90], 1.
For the compound `Cc1ccccc1C(=NNC=O)C(C)(C)n1ccc([N+](=O)[O-])n1` [A-251], the root knot index was determined as 1.
The same measure, in the same setting: the figure for `CN(C=O)N=C(c1ccc(Cl)cc1)C(C)(C)n1cnc(C(F)(F)F)n1` [A-94] is 1.
In the case of `CC(C)(C(=NNC=O)c1ccc(F)cc1F)n1ccc(C(F)(F)F)n1` [A-156], the root knot index was 1.
For the compound `Cc1ccccc1C(=NNC=O)C(C)(C)n1cc([N+](=O)[O-])cn1` [A-256], the root knot index is reported as 1.
In the case of `C#CCN(C=O)N=C(c1ccccc1Cl)C(C)(C)n1ccc(C(F)(F)F)n1` [A-195], the root knot index amounted to 1.
Regarding `CC(C)(C(=NNC=O)c1ccc(F)cc1F)n1cnc(C(F)(F)F)n1` [A-157], the root knot index came out at 1.
Same read-out and setting: under `CC(C)(C(=NNC=O)c1ccccc1I)n1ccc(C(F)(F)F)n1` [A-240] stands 1; under `CC(C)(C(=NNC=O)c1cc(Cl)ccc1Cl)n1ccc(C(F)(F)F)n1` [A-334], 1; under `CC(C)(C(=NNC=O)c1cc(F)ccc1Cl)n1ccc(C(F)(F)F)n1` [A-351], 1.
The same measure, in the same setting: the figure for `CC(C)(C(=NNC=O)c1ccccc1I)n1cnc(C(F)(F)F)n1` [A-241] is 1.
With `CC(C)(C(=NNC=O)c1ccccc1OC(F)(F)F)n1ccc(Br)n1` [A-272], the root knot index is reported as 1.
The same measure, in the same setting: the figure for `CC(C)(C(=NNC=O)c1ccccc1OC(F)(F)F)n1ccc(C(F)(F)F)n1` [A-270] is 1.
The compound `CC(C)(C(=NNC=O)c1cccc2c1OC(F)(F)O2)n1cnc([N+](=O)[O-])n1` [A-419] returned a root knot index of 1.
`Cc1ccccc1C(=NNC=O)C(C)(C)n1ccc(Cl)n1` [A-247] had a root knot index of 1.
For `CC(C)(C(=NNC=O)c1cccc(C(F)(F)F)c1)n1cnc(C(F)(F)F)n1` [A-327], the root knot index is 1.
In turn, `CC(C)(C(=NNC=O)c1c(F)cccc1F)n1ccc(C(F)(F)F)n1` [A-160] yielded a root knot index of 1.
`Cc1ccccc1C(=NNC=O)C(C)(C)n1ccc(C#N)n1` [A-253] yielded a root knot index of 1.
As to `CC(C)(C(=NNC=O)c1ccccc1OC(F)(F)F)n1cnc(C#N)n1` [A-273], the root knot index was 1.
In the case of `O=CNN=C(c1ccccc1)C1(n2ccc(C(F)(F)F)n2)CCC1` [B-81], the root knot index came to 1.
Take `Cc1ccccc1C(=NNC=O)C(C)(C)n1cc(F)cn1` [A-255]: the root knot index is reported as 1.
For `Cc1ccccc1C(=NNC=O)C(C)(C)n1cc(C#N)c(C(F)(F)F)n1` [A-257], the root knot index is 1.
Regarding `CC(C)(C(=NNC=O)c1cccc(Cl)c1Cl)n1ccc(C(F)(F)F)n1` [A-332], the root knot index is 1.
`CC(C)(C(=NNC=O)c1ccc(F)cc1F)n1ccc(Cl)n1` [A-344] yielded a root knot index of 1.
As to `CC(C)(C(=NNC=O)c1ccccc1Cl)n1cc(C(F)(F)F)cn1` [A-216], the root knot index is on record as 1.
In the case of `CC(C)(C(=NNC=O)c1ccccc1Cl)n1ccc([N+](=O)[O-])n1` [A-205], the root knot index stood at 1.
In the case of `COc1ccccc1C(=NNC=O)C(C)(C)n1cnc(C(F)(F)F)n1` [A-265], the root knot index came to 1.
`CC(C)(C(=NNC=O)c1cccc2c1OC(F)(F)O2)n1cnc(C(F)F)n1` [A-424] displayed a root knot index of 1.
With `CC(C)(C(=NNC=O)c1cccc2c1OC(F)(F)O2)n1cnc(C#N)n1` [A-417], the root knot index is 1.

Still in this experiment, the particulars now being: Comparative Test, active ingredient concentration 50 ppm; otherwise as Test Example 1 (cucumber).
For `CC(C(=NNC=O)c1cccc(Cl)c1)n1ccc(C(F)(F)F)n1` (centres unmarked) [Compound A-58 (WO2020/ 179910), reference compound], the root knot index worked out at 2.
`CC(C(=NNC=O)c1ccccc1)n1ccc(C(F)(F)F)n1` (centres unmarked) [Compound A-1 (WO2020/ 179910), reference compound] yielded a root knot index of 2.
Consider `CC(C(=NNC=O)c1ccccc1)n1cnc(C(F)(F)F)n1` (centres unmarked) [Compound A-3 (WO2020/ 179910), reference compound], for which the root knot index is given as 2.
